This assay has as its target T1, recombinant human cannabinoid 1 receptor (CB1) (Homo sapiens, UniProt P21554).
T1 construct: expressed in transfected cells; membrane preparation
The assay can be described thus: In vitro determination of antagonism to CB1-receptor, [35S]GTPγS binding assay. As to conditions: compound 1 µM vs agonist WIN 55,212-2; 100 % = effect of Rimonabant (1 µM). The class given is biochemical. As to the method:
The reaction is performed in 96-well plates. […] Radioactivity is determined using a Wallac Microbeta Trilux. Each experiment is performed at least in duplicate.
The average of basal [^35S]GTPγS binding is subtracted from all binding data.

T1 sequence (P21554 whole entry): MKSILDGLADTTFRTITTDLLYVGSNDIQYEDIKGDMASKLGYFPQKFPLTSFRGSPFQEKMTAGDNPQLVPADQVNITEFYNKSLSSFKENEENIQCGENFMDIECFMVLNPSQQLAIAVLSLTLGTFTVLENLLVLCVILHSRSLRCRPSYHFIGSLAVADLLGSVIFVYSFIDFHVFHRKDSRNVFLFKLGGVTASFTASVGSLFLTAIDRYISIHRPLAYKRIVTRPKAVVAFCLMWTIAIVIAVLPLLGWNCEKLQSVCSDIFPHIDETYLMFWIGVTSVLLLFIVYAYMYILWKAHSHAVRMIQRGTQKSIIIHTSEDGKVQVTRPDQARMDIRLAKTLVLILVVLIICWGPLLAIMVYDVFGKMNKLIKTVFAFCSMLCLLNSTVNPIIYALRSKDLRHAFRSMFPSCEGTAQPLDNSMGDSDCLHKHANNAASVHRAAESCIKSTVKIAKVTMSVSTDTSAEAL

Consider `O=C(NN1CCCCC1)C1=NN(c2ccc(Cl)cc2Cl)[C@@H](c2ccc(Cl)cc2)C1` [Example 1, (R)-N-piperidinyl-5-(4-chlorophenyl)-1-(2,4-dichlorophenyl)-4,5-dihydro-1H-pyrazole-3-carboxamide], for which the Antagonism is on record as 106%.

For the origin of these results see patent publication EP1944296A1, “Amorphous phase of a substituted pyrazoline, its preparation and use as medicaments” (Laboratorios del Dr. Esteve S.A., priority 2007, dated 2008).
